PMC9532703, “A novel small molecule RK-019 inhibits FGFR2-amplification gastric cancer cell proliferation and induces apoptosis in vitro and in vivo” (Frontiers in Pharmacology, 2022)

Assays:
Test in all cases: Kinase selectivity panel
Type in all cases: biochemical
Settings in all cases: read-out: Inhibition(%) @ 1 µM RK-019
JNK3(h) = biological target: T1, JNK3(h) (Homo sapiens, UniProt P53779)
T1 construct: purchased Eurofins Discovery Services (KinaseProfiler)
Outline: (§1)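 Selectivity profiling used one concentration (1 µM) in an ATP-site competition binding assay over 422 recombinant human kinases; data given as inhibition ratio.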

[1] = biological target: T2, PI3 Kinase (p110b/p85b)(m) (Mus musculus, UniProt Q8BTI9)
T2 construct: purchased Eurofins Discovery Services (KinaseProfiler)

RIPK1(h) = biological target: T3, RIPK1(h) (Homo sapiens, UniProt Q13546)
T3 construct: purchased Eurofins Discovery Services (KinaseProfiler)
Outline: as §1

GRK1(h) = biological target: T4, GRK1(h) (Homo sapiens, UniProt Q15835)
T4 construct: purchased Eurofins Discovery Services (KinaseProfiler)
Outline: as §1

Src(T341M)(h) = biological target: T5, Src(T341M)(h) (Homo sapiens, UniProt P12931, T341M)
T5 construct: purchased Eurofins Discovery Services (KinaseProfiler)
Outline: as §1

Src(1-530)(h) = biological target: T6, Src(1-530)(h) (Homo sapiens, UniProt P12931)
T6 construct: purchased Eurofins Discovery Services (KinaseProfiler)
Outline: as §1

IR(h) = biological target: T7, IR(h) (Homo sapiens, UniProt P06213)
T7 construct: purchased Eurofins Discovery Services (KinaseProfiler)
Outline: as §1

Blk(m) = biological target: T8, Blk(m) (Mus musculus, UniProt P16277)
T8 construct: purchased Eurofins Discovery Services (KinaseProfiler)

Syk(h) = biological target: T9, Syk(h) (Homo sapiens, UniProt P43405)
T9 construct: purchased Eurofins Discovery Services (KinaseProfiler)
Outline: as §1

MAPK1(h) = biological target: T10, MAPK1(h) (Homo sapiens, UniProt P27361)
T10 construct: purchased Eurofins Discovery Services (KinaseProfiler)
Outline: as §1

PIP4K2a(h) = biological target: T11, PIP4K2a(h) (Homo sapiens, UniProt P48426)
T11 construct: purchased Eurofins Discovery Services (KinaseProfiler)
Outline: as §1

CDK14/cyclinY(h) = biological target: T12, CDK14/cyclinY(h) (Homo sapiens, UniProt O94921)
T12 construct: purchased Eurofins Discovery Services (KinaseProfiler)
T12 sequence (O94921 whole entry): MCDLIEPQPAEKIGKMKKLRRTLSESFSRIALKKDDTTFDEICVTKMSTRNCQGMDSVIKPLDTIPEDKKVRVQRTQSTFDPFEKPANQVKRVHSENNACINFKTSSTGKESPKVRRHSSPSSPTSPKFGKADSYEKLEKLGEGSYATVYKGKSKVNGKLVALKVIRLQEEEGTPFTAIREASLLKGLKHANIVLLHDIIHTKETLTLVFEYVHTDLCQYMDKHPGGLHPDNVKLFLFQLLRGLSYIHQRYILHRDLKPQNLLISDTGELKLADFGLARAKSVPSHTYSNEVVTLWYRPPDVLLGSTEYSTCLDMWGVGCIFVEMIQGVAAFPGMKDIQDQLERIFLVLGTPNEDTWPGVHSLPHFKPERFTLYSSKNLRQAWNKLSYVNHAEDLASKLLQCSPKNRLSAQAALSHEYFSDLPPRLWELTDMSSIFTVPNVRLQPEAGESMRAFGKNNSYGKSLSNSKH
T12 sequence (Q8ND76 whole entry partner): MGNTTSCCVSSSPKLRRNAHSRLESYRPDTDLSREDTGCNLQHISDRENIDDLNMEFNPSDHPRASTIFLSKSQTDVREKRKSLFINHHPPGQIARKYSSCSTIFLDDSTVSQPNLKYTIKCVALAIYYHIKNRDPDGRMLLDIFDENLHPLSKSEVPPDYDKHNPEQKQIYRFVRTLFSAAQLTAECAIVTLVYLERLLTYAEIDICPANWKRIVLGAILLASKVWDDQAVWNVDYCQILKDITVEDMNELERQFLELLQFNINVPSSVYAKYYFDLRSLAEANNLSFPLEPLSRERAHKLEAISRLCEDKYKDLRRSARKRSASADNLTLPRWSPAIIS
Outline: as §1

CHK2(I157T)(h) = biological target: T13, CHK2(I157T)(h) (Homo sapiens, UniProt O96017, I157T)
T13 construct: purchased Eurofins Discovery Services (KinaseProfiler)
Outline: as §1

CDK4/cyclinD3(h) = biological target: T14, CDK4/cyclinD3(h) (Homo sapiens, UniProt P11802)
T14 construct: purchased Eurofins Discovery Services (KinaseProfiler)
Outline: as §1

SRPK2(h) = biological target: T15, SRPK2(h) (Homo sapiens, UniProt P78362)
T15 construct: purchased Eurofins Discovery Services (KinaseProfiler)
T15 sequence (P78362 whole entry): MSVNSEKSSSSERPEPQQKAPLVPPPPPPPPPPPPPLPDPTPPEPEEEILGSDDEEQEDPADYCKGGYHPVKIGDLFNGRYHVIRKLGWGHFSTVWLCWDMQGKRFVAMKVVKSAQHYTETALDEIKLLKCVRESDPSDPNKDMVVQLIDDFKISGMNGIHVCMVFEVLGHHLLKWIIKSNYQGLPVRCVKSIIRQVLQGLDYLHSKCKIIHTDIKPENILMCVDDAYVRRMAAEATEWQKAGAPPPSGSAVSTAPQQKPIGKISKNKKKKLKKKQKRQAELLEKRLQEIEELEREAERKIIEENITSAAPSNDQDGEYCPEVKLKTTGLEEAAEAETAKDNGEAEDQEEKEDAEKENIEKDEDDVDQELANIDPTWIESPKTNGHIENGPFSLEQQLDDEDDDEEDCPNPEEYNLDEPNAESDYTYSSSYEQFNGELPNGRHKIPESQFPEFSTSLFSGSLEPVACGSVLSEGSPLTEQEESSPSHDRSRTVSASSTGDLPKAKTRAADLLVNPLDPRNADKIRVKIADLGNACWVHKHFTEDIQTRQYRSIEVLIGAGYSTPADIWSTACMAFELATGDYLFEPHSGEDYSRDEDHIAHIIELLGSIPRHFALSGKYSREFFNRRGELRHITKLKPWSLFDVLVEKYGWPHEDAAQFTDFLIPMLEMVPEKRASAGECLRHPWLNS
Outline: as §1

ALK(h) = biological target: T16, ALK(h) (Homo sapiens, UniProt Q9UM73)
T16 construct: purchased Eurofins Discovery Services (KinaseProfiler)
Outline: as §1

CaMKIδ(h) = biological target: T17, CaMKIδ(h) (Homo sapiens, UniProt Q8IU85)
T17 construct: purchased Eurofins Discovery Services (KinaseProfiler)
Outline: as §1

Txk(h) = biological target: T18, Txk(h) (Homo sapiens, UniProt P42681)
T18 construct: purchased Eurofins Discovery Services (KinaseProfiler)
Outline: as §1

Rsk1(h) = biological target: T19, Rsk1(h) (Homo sapiens, UniProt Q15418)
T19 construct: purchased Eurofins Discovery Services (KinaseProfiler)
Outline: as §1

ALK6(h) = biological target: T20, ALK6(h) (Homo sapiens, UniProt O00238)
T20 construct: purchased Eurofins Discovery Services (KinaseProfiler)
T20 sequence (O00238 14-502): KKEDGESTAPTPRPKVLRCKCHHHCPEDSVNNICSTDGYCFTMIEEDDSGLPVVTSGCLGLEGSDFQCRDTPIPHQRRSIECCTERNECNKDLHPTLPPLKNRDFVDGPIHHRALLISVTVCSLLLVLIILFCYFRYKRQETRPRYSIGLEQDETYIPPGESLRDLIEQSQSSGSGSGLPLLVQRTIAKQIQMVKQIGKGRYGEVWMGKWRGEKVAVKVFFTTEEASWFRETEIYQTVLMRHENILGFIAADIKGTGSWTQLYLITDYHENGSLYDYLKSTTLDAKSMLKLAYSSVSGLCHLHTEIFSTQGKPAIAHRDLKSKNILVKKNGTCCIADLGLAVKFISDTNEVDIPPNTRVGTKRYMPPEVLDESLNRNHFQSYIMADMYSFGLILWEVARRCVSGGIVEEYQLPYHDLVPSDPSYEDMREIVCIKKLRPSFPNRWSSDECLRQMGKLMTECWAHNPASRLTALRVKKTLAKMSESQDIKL
Outline: as §1

JAK2(h) = biological target: T21, JAK2(h) (Homo sapiens, UniProt O60674)
T21 construct: purchased Eurofins Discovery Services (KinaseProfiler)
Outline: as §1

PKCα(h) = biological target: T22, PKCα(h) (Homo sapiens, UniProt P17252)
T22 construct: purchased Eurofins Discovery Services (KinaseProfiler)
Outline: as §1

Snk(h) = biological target: T23, Snk(h) (Homo sapiens, UniProt Q9NYY3)
T23 construct: purchased Eurofins Discovery Services (KinaseProfiler)
Outline: as §1

Bmx(h) = biological target: T24, Bmx(h) (Homo sapiens, UniProt P51813)
T24 construct: purchased Eurofins Discovery Services (KinaseProfiler)
Outline: as §1

NEK2(h) = biological target: T25, NEK2(h) (Homo sapiens, UniProt P51955)
T25 construct: purchased Eurofins Discovery Services (KinaseProfiler)
T25 sequence (P51955 whole entry): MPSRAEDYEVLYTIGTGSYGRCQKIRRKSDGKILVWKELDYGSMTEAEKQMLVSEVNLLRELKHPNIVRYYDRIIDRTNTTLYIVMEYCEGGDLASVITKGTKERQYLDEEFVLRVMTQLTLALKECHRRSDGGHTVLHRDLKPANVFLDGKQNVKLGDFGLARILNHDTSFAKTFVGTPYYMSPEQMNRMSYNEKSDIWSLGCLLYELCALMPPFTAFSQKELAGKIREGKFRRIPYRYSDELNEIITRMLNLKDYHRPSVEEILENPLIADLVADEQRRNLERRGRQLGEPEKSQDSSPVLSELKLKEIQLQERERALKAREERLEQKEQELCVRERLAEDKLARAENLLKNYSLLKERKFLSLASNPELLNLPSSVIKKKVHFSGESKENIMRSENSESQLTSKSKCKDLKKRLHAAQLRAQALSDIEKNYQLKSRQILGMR
Outline: as §1

EphA4(h) = biological target: T26, EphA4(h) (Homo sapiens, UniProt P54764)
T26 construct: purchased Eurofins Discovery Services (KinaseProfiler)
Outline: as §1

PKBγ(h) = biological target: T27, PKBγ(h) (Homo sapiens, UniProt Q9Y243)
T27 construct: purchased Eurofins Discovery Services (KinaseProfiler)
Outline: as §1

A-Raf(h) = biological target: T28, A-Raf(h) (Homo sapiens, UniProt P10398)
T28 construct: purchased Eurofins Discovery Services (KinaseProfiler)
T28 sequence (P10398 whole entry): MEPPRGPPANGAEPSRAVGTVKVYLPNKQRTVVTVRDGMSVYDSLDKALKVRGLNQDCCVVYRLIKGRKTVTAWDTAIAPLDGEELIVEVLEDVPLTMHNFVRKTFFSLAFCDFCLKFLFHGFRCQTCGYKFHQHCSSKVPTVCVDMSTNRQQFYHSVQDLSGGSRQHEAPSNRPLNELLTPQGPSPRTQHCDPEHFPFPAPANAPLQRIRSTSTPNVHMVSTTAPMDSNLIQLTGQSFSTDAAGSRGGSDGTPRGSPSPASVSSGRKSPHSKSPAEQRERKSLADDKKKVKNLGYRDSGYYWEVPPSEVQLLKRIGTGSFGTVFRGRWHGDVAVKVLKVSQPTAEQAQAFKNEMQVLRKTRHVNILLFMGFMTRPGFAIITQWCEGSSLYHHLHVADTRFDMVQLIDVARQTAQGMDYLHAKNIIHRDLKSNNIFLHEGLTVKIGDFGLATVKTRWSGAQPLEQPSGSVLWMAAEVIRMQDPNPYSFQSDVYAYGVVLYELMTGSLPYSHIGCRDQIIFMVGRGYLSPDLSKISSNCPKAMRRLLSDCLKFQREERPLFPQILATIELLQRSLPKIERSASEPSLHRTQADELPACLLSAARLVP
Outline: as §1

PKG1α(h) = biological target: T29, PKG1α(h) (Homo sapiens, UniProt Q13976)
T29 construct: purchased Eurofins Discovery Services (KinaseProfiler)
T29 sequence (Q13976 whole entry): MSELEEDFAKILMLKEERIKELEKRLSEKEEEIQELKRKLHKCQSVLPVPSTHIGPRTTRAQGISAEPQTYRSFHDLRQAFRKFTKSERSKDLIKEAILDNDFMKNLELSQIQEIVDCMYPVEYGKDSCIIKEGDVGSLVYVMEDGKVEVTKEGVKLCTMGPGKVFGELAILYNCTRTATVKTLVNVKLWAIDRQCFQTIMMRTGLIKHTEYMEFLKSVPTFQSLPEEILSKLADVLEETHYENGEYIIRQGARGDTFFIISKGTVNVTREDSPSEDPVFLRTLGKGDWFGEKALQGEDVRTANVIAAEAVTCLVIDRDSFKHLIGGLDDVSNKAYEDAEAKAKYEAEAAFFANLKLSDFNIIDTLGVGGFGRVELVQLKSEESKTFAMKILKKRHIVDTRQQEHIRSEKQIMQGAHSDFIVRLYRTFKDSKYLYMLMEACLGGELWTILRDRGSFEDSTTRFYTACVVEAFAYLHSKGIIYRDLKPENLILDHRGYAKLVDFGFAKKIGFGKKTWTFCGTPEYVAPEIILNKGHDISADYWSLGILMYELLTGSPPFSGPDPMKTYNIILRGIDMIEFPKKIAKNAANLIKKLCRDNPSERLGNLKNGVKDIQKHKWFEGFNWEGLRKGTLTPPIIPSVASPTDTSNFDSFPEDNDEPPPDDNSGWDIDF
Outline: as §1

TAF1L(h) = biological target: T30, TAF1L(h) (Homo sapiens, UniProt Q8IZX4)
T30 construct: purchased Eurofins Discovery Services (KinaseProfiler)
Outline: as §1

BTK(h) = biological target: T31, BTK(h) (Homo sapiens, UniProt Q06187)
T31 construct: purchased Eurofins Discovery Services (KinaseProfiler)
Outline: as §1

SAPK3(h) = biological target: T32, SAPK3(h) (Homo sapiens, UniProt P53778)
T32 construct: purchased Eurofins Discovery Services (KinaseProfiler)
Outline: as §1

CDK12/cyclinK(h) = biological target: T33, CDK12/cyclinK(h) (Homo sapiens, UniProt Q9NYV4)
T33 construct: purchased Eurofins Discovery Services (KinaseProfiler)
Outline: as §1

PKCθ(h) = biological target: T34, PKCθ(h) (Homo sapiens, UniProt Q04759)
T34 construct: purchased Eurofins Discovery Services (KinaseProfiler)
Outline: as §1

Fms(h) = biological target: T35, Fms(h) (Homo sapiens, UniProt P07333)
T35 construct: purchased Eurofins Discovery Services (KinaseProfiler)
Outline: as §1

B-Raf(h) = biological target: T36, B-Raf(h) (Homo sapiens, UniProt P15056)
T36 construct: purchased Eurofins Discovery Services (KinaseProfiler)
T36 sequence (P15056 whole entry): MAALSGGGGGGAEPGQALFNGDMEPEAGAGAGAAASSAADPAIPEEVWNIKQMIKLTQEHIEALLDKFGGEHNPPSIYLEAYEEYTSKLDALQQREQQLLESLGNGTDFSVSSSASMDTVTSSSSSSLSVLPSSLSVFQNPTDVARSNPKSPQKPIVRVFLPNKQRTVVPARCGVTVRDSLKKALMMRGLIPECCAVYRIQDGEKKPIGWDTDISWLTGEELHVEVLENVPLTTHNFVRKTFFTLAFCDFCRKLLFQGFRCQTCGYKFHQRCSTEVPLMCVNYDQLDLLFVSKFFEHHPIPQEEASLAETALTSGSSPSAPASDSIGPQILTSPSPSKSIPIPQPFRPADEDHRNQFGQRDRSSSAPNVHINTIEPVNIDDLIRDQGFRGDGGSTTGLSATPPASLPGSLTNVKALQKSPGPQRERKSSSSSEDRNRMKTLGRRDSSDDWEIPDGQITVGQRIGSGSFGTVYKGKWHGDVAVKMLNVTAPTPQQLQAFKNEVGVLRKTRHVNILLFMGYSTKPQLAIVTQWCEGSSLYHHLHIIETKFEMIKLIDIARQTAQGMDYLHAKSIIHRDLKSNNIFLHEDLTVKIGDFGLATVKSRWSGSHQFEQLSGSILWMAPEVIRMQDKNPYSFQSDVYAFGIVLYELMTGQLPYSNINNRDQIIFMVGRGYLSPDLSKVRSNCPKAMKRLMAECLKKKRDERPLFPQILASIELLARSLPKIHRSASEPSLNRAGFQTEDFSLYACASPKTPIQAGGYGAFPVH
Outline: as §1

ICK(h) = biological target: T37, ICK(h) (Homo sapiens, UniProt Q9UPZ9)
T37 construct: purchased Eurofins Discovery Services (KinaseProfiler)
Outline: as §1

T1 sequence (P53779 whole entry): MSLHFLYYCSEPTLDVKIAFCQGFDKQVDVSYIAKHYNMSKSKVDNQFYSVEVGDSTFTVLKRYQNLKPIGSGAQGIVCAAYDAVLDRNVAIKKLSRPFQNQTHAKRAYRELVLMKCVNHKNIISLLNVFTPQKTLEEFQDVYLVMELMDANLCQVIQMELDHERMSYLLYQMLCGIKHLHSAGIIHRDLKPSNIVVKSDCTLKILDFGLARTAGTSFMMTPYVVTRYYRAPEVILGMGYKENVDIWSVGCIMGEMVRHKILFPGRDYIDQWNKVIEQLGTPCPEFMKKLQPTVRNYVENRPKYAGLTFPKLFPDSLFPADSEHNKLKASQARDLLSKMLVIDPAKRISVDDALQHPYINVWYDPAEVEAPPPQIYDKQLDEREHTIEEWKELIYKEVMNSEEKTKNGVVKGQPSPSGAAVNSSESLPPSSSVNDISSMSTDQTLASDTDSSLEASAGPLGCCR

Compound `COc1cc(OC)cc(N(CCN[C@H](C)CO)c2ccc3ncc(-c4cnn(C)c4)c(=O)n3c2)c1` [RK-019, (R)-7-((3,5-dimethoxyphenyl) (2-((1-hydroxypropan-2-yl)amino)ethyl)amino)-3-(1-methyl-1H-pyrazol-4-yl)-4H-pyrido [1,2-a]pyrimidin-4-one] has an activity at 1 µM (JNK3(h)) of 91%, an activity at 1 µM [1] of 99% and an activity at 1 µM (RIPK1(h)) of 85%. For the same compound, the activity at 1 µM (GRK1(h)) was 94%, the activity at 1 µM (Src(T341M)(h)) was 98% and the activity at 1 µM (Src(1-530)(h)) was 45%. It also gave an activity at 1 µM (IR(h)) of 118%, an activity at 1 µM (Blk(m)) of 53% and an activity at 1 µM (Syk(h)) of 116%. It also gave an activity at 1 µM (MAPK1(h)) of 116%, an activity at 1 µM (PIP4K2a(h)) of 102% and an activity at 1 µM (CDK14/cyclinY(h)) of 91%. The activity at 1 µM (CHK2(I157T)(h)) was 100%, the activity at 1 µM (CDK4/cyclinD3(h)) was 101% and the activity at 1 µM (SRPK2(h)) was 134%. The activity at 1 µM (ALK(h)) was 85%, the activity at 1 µM (CaMKIδ(h)) was 98% and the activity at 1 µM (Txk(h)) was 106%. It also gave an activity at 1 µM (Rsk1(h)) of 120%, an activity at 1 µM (ALK6(h)) of 107% and an activity at 1 µM (JAK2(h)) of 106%. It also gave an activity at 1 µM (PKCα(h)) of 97%, an activity at 1 µM (Snk(h)) of 109% and an activity at 1 µM (Bmx(h)) of 64%. For the same compound, the activity at 1 µM (NEK2(h)) was 80%, the activity at 1 µM (EphA4(h)) was 101% and the activity at 1 µM (PKBγ(h)) was 94%. For the same compound, the activity at 1 µM (A-Raf(h)) was 133%, the activity at 1 µM (PKG1α(h)) was 110% and the activity at 1 µM (TAF1L(h)) was 100%. The activity at 1 µM (BTK(h)) was 72%, the activity at 1 µM (SAPK3(h)) was 99% and the activity at 1 µM (CDK12/cyclinK(h)) was 109%. For the same compound, the activity at 1 µM (PKCθ(h)) was 119%, the activity at 1 µM (Fms(h)) was 16% and the activity at 1 µM (B-Raf(h)) was 124%. For the same compound, the activity at 1 µM (ICK(h)) was 119%.
